Tests used:
[1] = test system: RBL-2H3 cells; assay: evaluation of degranulation (β-hexosaminidase release) in sensitized/stimulated RBL-2H3 cells; format: cell-based, rat; conditions: positive control 20 µM
Experimental: To evaluate the efficacy of a mixture M according to the invention, the following in vitro study was conducted. The antiallergic activity of the tested sample of mixture M was evaluated by measuring its ability to prevent degranulation processes in a rat leukemia cell line (RBL-2H3), widely used as a model simulating mast cells in immunological and allergological studies.
(§1) The RBL-2H3 cells were first sensitized and then stimulated to induce degranulation.
The test was conducted on RBL-2H3 cells grown in DMEM (Dulbecco's modified Eagle medium) containing 10% fetal bovine serum (FBS) and 1% antibiotics (penicillin and streptomycin) and incubated in standard culture conditions (37°C, 5% CO2). RBL-2H3 cells are widely used in allergy and immunology research, as, like mast cells, they express FCεRI and, following cross-linking between IgE bound to FCεRI and allergens, they undergo degranulation. […]
The medium was then recovered and separated from the cells and incubated with 4-nitrophenyl-N-acetyl-β-D-glucosamide. The reaction was stopped with carbonate buffer and the absorbance was measured by spectrophotometric reading at 405 nm. Degranulation was calculated as the percentage of β-hexosaminidase relative to non-sensitized (NS) cells as follows: Degranulation (%) = (ODX)/(ODNS)⋅100 [formula] […]

[2] = test system: TNFα; assay: TNFα dosage by ELISA in supernatant of sensitized/stimulated RBL-2H3 cells; format: cell-based, rat; conditions: positive control 20 µM
Experimental: The anti-inflammatory action was instead evaluated, always in the same cell line, by measuring the ability of the sample to inhibit the release of tumor necrosis factor alpha (TNFα).
as §1
The test was conducted on RBL-2H3 cells grown in DMEM (Dulbecco's modified Eagle medium) containing 10% fetal bovine serum (FBS) and 1% antibiotics (penicillin and streptomycin) and incubated in standard culture conditions (37°C, 5% CO2). RBL-2H3 cells are widely used in allergy and immunology research, as, like mast cells, they express FCεRI and, following cross-linking between IgE bound to FCεRI and allergens, they undergo degranulation. In this way, therefore, they simulate the behavior of mast cells and basophils in their response to an immunological stimulus.
The supernatant recovered from the cells was also used for the dosage of TNFα performed by ELISA (Enzyme-Linked Immunosorbent Assay), a very widespread biochemical technique used for the quantification of proteins and peptides. In an ELISA assay, a specific […] for TNFα is immobilized on a solid surface (the bottom of a well) to which the assay medium is added. Detection is done by means of a biotinylated secondary antibody and then reacted with streptavidin-HRP. The colorimetric reaction is proportional to the amount of TNFα present. The results are read by spectrophotometer at 450 nm. The values obtained were then interpolated into a standard curve of TNFα.
The absorbance (optical density, OD) measured at 450 nm is directly proportional to the amount of TNFα produced by the tissues. To calculate the concentrations of TNFα, the OD values obtained were interpolated into a standard curve of TNFα. The percentages were calculated with respect to the non-sensitized and non-stimulated cells (NS). The values are expressed as means ± standard deviation. Statistical processing of the data was performed by Student's t-test. Values of p<0.05 are considered significant. […]

Compound: C=C1CC[C@H]2C(=C)CC[C@H]3C(=C)C(=O)O[C@@H]3[C@@H]12 [PC, Dehydrocostolactone]
- β-hexosaminidase (% vs NS) ([1]; RBL-2H3, anti-DNP IgE / DNP-HSA): 244.8%
- protection (% vs NC) ([1]; reduction in degranulation): 80.8%
- TNFα (% vs NS) [2]: 183.4%
- TNFα ([2]; RBL-2H3 supernatant): 200.3 pg/mL
- protezione (% vs NC) ([2]; reduction in TNFα release): 19.5%
